Data on 11 compounds can be found in patent US4072743A, “N^2 -arylsulfonyl-L-argininamides and the pharmaceutically acceptable salts thereof” (Mitsubishi Chemical Industries Limited, priority 1974, dated 1978).

In series [1] the test system is mice. In words: Acute toxicity (LD50) by intraperitoneal administration in mice. The class given is in vivo. The settings on record: mice (male, 20 g). An excerpt: Representative LD50 values, for example, for N^2 -(5,6,7,8-tetrahydro-1-naphthylsulfonyl)-N-(2-methoxyethyl)glycine, N^2 -(7-methyl-2-naphthylsulfonyl)-N-butylglycine and N^2 -(6,7-dimethyl-1-naphthylsulfonyl)-N-(2-methoxyethyl)glycine are above 1,500 milligrams per kilogram, respectively.

The target in series [2] is T1, thrombin (Bos taurus, UniProt P00735).
T1 construct: purchased Mochida Pharmaceutical Co., Ltd
In words: Fibrinogen coagulation time (thrombin-induced clotting of bovine fibrinogen). The class given is biochemical. The settings on record: thrombin 5 units/ml, borate saline buffer pH 7.4, 25° C, normal coagulation time 50-55 seconds prolonged to 100-110 seconds. As to the method: The measurement of the fibrinogen coagulation time was conducted as follows:
Immediately after mixing, the reaction mixture was transferred from the ice bath to a bath maintained at 25° C. Coagulation times were taken as the period between the time of transference to the 25° C bath and the time of the first appearance of fibrin threads.
The term "concentration required to prolong the coagulation time by a factor of two" is the concentration of an active ingredient required to prolong the normal coagulation time 50-55 seconds to 100-110 seconds.

For `CCCCNC(=O)[C@H](CCCNC(=N)N)NS(=O)(=O)c1cccc2c(N(C)C)cccc12` [N^2 -dansyl-N-butyl-L-argininamide, reference compound], the “acute toxicity value (LD50)” value in series [1] is 75 milligrams per kilogram.
Take `CCCCN(C)C(=O)[C@H](CCCNC(=N)N)NS(=O)(=O)c1cccc2c(N(C)C)cccc12` [N^2 -dansyl-N-methyl-N-butyl-L-argininamide, reference compound]: the “acute toxicity value (LD50)” value in series [1] was determined as 70 milligrams per kilogram.
For the compound `CCCCN(CC(=O)O)C(=O)[C@H](CCCNC(=N)N)NS(=O)(=O)c1cccc2c1CCCC2` [Sample 1, N^2-(5,6,7,8-tetrahydro-1-naphthylsulfonyl)-L-arginyl-N-butylglycine], the “Concentration required to prolong the coagulation time by a factor of two” value (“Concentration required” for short) in series [2] was 20 µM.
Consider `COCCN(CC(=O)O)C(=O)[C@H](CCCNC(=N)N)NS(=O)(=O)c1cccc2c1CCCC2` [Sample 3, N^2-(5,6,7,8-tetrahydro-1-naphthylsulfonyl)-L-arginyl-N-(2-methoxyethyl)glycine], for which the “Concentration required” value in series [2] was 10 µM. Besides, in series [1], the “acute toxicity value (LD50)” value was “above 1,500 milligrams per kilogram”.
Consider `N=C(N)NCCC[C@H](NS(=O)(=O)c1ccc2c(c1)CCCC2)C(=O)N(CC(=O)O)Cc1ccccc1` [Sample 4, N^2-(5,6,7,8-tetrahydro-2-naphthylsulfonyl)-L-arginyl-N-benzylglycine], for which, in series [2], the “Concentration required” value stood at 30 µM.
In the case of `CCCCN(CC(=O)O)C(=O)[C@H](CCCNC(=N)N)NS(=O)(=O)c1ccc2ccc(C)cc2c1` [Sample 14, N^2-(7-methyl-2-naphthylsulfonyl)-L-arginyl-N-butylglycine], in series [2], the “Concentration required” value was found to be 0.3 µM. Besides, the “acute toxicity value (LD50)” value in series [1] is “above 1,500 milligrams per kilogram”.
With `COCCN(CC(=O)O)C(=O)[C@H](CCCNC(=N)N)NS(=O)(=O)c1ccc2ccc(C)cc2c1` [Sample 15, N^2-(7-methyl-2-naphthylsulfonyl)-L-arginyl-N-(2-methoxyethyl)glycine], the “Concentration required” value in series [2] turned out to be 0.2 µM.
`Cc1ccc2ccc(S(=O)(=O)N[C@@H](CCCNC(=N)N)C(=O)N(CC(=O)O)CC3CCCCC3)cc2c1` [Sample 17, N^2-(7-methyl-2-naphthylsulfonyl)-L-arginyl-N-cyclohexylmethylglycine]: the “Concentration required” value in series [2] was found to be 14 µM.
On the same count and under the same terms, the figure for `COCCN(CC(=O)O)C(=O)[C@H](CCCNC(=N)N)NS(=O)(=O)c1cccc2ccc(C)cc12` [Sample 22, N^2-(7-methyl-1-naphthylsulfonyl)-L-arginyl-N-(2-methoxyethyl)glycine] is 20 µM.
Consider `COCCN(CC(=O)O)C(=O)[C@H](CCCNC(=N)N)NS(=O)(=O)c1cccc2cc(C)c(C)cc12` [Sample 23, N^2-(6,7-dimethyl-1-naphthylsulfonyl)-L-arginyl-N-(2-methoxyethyl)glycine], for which, in series [2], the “Concentration required” value is 10 µM. Further, in series [1], the “acute toxicity value (LD50)” value is “above 1,500 milligrams per kilogram”.
On to `CCCCN(CC(=O)O)C(=O)[C@H](CCCNC(=N)N)NS(=O)(=O)c1cccc2c(N(C)C)cccc12` [Sample 24, N^2-(5-dimethylamino-1-naphthylsulfonyl)-L-arginyl-N-butylglycine], for which the “Concentration required” value in series [2] is 4 µM.
